Like-named read-outs stand apart in the source and are kept apart here.
Tests used:
[1] = Rat PK (iv and oral); assay type: in vivo; conditions: for AUC(0-inf) / bioavailability: Sprague-Dawley, plasma; for AUC(0-inf): after oral administration 10 mg/kg (5m 10.5); for bioavailability: po, 10 mg/kg; for Cmax / Tmax: po 10 mg/kg (5m 10.5); for T1/2: terminal half-life after iv 2 mg/kg (5m 2.1); for Clobs: total clearance, iv 2 mg/kg (5m 2.1)
[2] = Stability in rat microsome preparations; assay type: in vitro ADME; conditions: incubation at 37 °C, rat microsomes; read-out: rat MS, T1/2
From the text: (§1) Table 1 Screening Data for Selected Analogues ^a | column: human and rat MS, T1/2 (min) ^g

[3] = target: T1, IP (Homo sapiens, UniProt P43119); assay: HTRF cAMP assay, recombinant human IP receptor stably expressed in CHO-K1 cells; assay type: cell-based; set-up: expressed in transfected cells
T1 sequence (P43119 whole entry): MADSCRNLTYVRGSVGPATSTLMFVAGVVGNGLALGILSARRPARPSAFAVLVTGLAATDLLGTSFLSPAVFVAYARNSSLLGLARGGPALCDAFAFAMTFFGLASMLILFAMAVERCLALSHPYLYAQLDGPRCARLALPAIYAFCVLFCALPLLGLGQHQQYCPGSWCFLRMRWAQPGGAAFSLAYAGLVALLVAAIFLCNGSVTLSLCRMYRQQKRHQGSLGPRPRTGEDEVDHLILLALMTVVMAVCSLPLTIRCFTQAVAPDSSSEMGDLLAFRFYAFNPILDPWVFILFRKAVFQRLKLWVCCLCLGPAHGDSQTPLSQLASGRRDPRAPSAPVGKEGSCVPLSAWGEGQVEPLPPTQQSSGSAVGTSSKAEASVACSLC
Method: (§2) The new compounds were tested for functional agonist activity in a standard (Cisbio) cAMP assay using recombinant IP or DP1 receptors stably expressed in CHO-K1 cells. Clonal cell lines were derived following standard protocols, but receptor expression levels were kept to a minimum to preclude receptor reserve effects.
(§3) For development of cAMP accumulation assays, recombinant IP or DP1 receptors were stably expressed in CHO-K1 cells and clonal cell lines derived following standard protocols. Receptor expression levels were minimized to preclude receptor reserve effects. HTRF cAMP assays were performed according to the manufacturer’s instructions (Cisbio, cAMP Dynamic 2 assay kit; no. 62AM4PEJ). IP receptor-expressing cells were harvested, resuspended in assay buffer (PBS containing 1 mM IBMX and 0.2% BSA) at a density of 200 000 cells per mL, and dispensed into 384-well assay plates (PerkinElmer Proxiplate no. 6008280) at 5 μL per well. Test compounds were solubilized and serially diluted in DMSO using 5-fold dilutions to generate a 10-point dose–response curve with a top concentration of 10 μM. The samples were then further diluted in PBS to achieve a 2× stock. Diluted compounds were then transferred to a triplicate set of assay plates (5 μL per well). After a 1 h incubation at room temperature, 5 μL of cAMP-D2 reagent diluted in lysis buffer was added to each well followed by 5 μL of cryptate reagent. Plates were then incubated at room temperature for 1 h prior to reading. Time-resolved fluorescence measurements were collected on PerkinElmer Envision or BMG Pherastar microplate readers.

[4] = Stability in human microsome preparations; assay type: in vitro ADME; conditions: incubation at 37 °C, human microsomes; read-out: human MS, T1/2
From the text: as §1

[5] = test system: human platelet; assay: Inhibition of ADP-induced human platelet aggregation; assay type: cell-based; conditions: aggregation induced by 2.5 μM ADP, mean of at least two determinations
Method: Such aggregated and activated platelets produce vasoactive substances such as thromboxane and serotonin that may cause harmful vasoconstriction and vascular remodeling.[13] […] This secondary assay was carried out as previously described,[14] with aggregation induced by 2.5 μM ADP in the presence or absence of IP receptor agonists.

[6] = target: rat IP (Rattus norvegicus, UniProt P43253); assay: HTRF cAMP assay, recombinant rat IP receptor; assay type: cell-based; set-up: expressed in transfected cells; conditions: for EC50: HTRF (cAMP) rat IP receptor assay, mean of at least three determinations; for Emax: read-out: rIP % IA
Chain of rat IP (P43253 whole entry): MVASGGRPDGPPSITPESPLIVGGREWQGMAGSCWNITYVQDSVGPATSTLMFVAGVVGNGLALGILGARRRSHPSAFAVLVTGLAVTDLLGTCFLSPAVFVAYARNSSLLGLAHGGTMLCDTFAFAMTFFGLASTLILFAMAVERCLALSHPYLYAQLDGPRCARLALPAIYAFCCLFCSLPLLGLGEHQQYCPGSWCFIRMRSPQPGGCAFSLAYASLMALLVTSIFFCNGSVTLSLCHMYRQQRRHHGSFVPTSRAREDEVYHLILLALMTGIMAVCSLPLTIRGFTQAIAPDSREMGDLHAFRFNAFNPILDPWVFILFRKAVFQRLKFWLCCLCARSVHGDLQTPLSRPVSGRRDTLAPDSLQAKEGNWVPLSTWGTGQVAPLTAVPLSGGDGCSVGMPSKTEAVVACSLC
Method: as §2, §3

[7] = target: T2, human DP1 receptor (Homo sapiens, UniProt Q13258); assay: HTRF cAMP assay, recombinant human DP1 receptor in CHO-K1 cells; assay type: cell-based; conditions: for Emax: CHO-K1, intrinsic activity relative to 1 μM PGD2, read-out: hDP1 % IA
T2 construct: expressed in transfected cells
T2 sequence (Q13258 1-359): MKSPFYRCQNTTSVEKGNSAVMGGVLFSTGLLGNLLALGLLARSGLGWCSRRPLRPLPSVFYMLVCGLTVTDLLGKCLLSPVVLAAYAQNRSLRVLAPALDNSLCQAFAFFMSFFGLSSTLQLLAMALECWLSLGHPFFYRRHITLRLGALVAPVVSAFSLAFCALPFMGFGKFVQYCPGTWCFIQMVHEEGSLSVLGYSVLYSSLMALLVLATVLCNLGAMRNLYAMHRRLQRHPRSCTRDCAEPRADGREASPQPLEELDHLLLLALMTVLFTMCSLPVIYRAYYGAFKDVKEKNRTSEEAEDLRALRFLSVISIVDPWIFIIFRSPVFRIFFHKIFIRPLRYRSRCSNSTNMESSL
Method: as §2, §3

[8] = target: EP2 (Homo sapiens, UniProt P43116); assay: cAMP HTRF agonist assay, EP2; assay type: cell-based; conditions: cAMP HTRF agonist assay
Chain of EP2 (P43116 whole entry): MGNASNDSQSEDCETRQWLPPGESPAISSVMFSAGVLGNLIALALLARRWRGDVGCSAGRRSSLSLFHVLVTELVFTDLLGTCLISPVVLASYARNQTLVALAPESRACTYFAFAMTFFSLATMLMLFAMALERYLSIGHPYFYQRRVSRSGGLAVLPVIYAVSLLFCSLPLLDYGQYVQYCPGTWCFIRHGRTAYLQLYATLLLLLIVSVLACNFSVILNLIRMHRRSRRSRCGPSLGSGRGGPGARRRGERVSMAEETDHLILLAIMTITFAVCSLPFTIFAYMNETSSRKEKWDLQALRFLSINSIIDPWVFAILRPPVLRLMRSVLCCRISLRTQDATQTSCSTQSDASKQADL
From the text: (§4) Table Sup2: Data with some comparator compounds in functional assays. […]

[9] = target: EP4 (Homo sapiens, UniProt P35408); assay: cAMP HTRF agonist assay, EP4; assay type: cell-based; conditions: cAMP HTRF agonist assay
Chain of EP4 (P35408 whole entry): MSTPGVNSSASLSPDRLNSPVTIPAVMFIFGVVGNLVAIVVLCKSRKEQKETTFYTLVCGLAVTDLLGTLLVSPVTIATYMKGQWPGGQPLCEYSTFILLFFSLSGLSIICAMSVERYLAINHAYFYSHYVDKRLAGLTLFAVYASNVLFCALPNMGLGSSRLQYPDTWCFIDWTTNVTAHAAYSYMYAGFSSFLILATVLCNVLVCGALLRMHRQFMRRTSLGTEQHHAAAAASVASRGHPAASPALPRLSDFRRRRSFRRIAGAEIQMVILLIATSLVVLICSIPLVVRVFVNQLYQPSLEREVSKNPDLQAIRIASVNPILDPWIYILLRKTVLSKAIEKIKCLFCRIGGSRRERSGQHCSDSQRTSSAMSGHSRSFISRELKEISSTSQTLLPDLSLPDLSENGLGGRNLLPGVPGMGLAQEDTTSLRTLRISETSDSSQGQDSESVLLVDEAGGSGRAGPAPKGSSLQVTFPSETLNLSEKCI
From the text: (§5) Table Sup2: Data with some comparator compounds in functional assays.
(§6) Compound DP1 EP1 EP2 EP3v6 EP4
(§7) EC50, µµµµM (% I.A) EC50, µµµµM (% I.A) EC50, µµµµM (% I.A) EC50, µµµµM (% I.A) EC50, µµµµM (% I.A)
(§8) n = 3 n = 2 n = 8 n = 6 n = 6 […]

[10] = target: T3, EP1 (Homo sapiens, UniProt P34995); assay: cAMP HTRF agonist assay, EP1; assay type: cell-based
T3 sequence (P34995 1-402): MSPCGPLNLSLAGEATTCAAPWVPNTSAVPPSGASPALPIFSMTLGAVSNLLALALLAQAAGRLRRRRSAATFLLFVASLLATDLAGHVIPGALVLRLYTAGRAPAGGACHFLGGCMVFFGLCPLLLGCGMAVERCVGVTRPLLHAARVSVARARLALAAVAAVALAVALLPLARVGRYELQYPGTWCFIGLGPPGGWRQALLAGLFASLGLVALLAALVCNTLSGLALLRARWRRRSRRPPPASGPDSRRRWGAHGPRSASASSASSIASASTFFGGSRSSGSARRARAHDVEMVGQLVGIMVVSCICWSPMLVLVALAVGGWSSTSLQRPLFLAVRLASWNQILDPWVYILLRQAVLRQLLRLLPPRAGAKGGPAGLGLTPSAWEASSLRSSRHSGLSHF
From the text: as §5, §6, §7, §8

[11] = target: T4, EP3v6 (Homo sapiens, UniProt P43115); assay: Melanophore dispersion assay, EP3v6; assay type: cell-based; set-up: expressed in transfected cells; host or cells: melanophores (transient, electroporation); conditions: melanophore dispersion assay (Gi)
T4 sequence (P43115 1-374 isoform P43115-4): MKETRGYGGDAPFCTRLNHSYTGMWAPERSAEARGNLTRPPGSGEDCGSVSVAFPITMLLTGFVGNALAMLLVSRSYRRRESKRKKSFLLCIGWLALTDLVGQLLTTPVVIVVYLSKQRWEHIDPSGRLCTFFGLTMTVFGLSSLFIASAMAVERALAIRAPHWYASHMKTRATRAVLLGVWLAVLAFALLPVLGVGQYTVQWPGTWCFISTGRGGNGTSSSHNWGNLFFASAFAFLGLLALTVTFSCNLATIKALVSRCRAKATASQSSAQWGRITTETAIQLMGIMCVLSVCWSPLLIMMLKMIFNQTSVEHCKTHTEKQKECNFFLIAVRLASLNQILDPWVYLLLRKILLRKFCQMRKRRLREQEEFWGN
Method: For the EP3v6 receptor functional assay, melanophores were transfected by electroporation using 20 μg of recombinant human EP3v6 receptor plasmid DNA per 400 μL of cell suspension. Transfected cells were immediately resuspended in fresh growth medium and plated in 384-well clear, polystyrene microplates. Plated cells were incubated at 27 °C for 48 h after transfection in order to achieve optimal receptor expression. To perform the assay, growth medium was removed from the assay plates and replaced with assay buffer (40 μL/well, 0.7× PBS, pH 7.3, supplemented with 20 nM melatonin to induce pigment aggregation). Following a 90 min incubation at room temperature, a 650 nm absorbance reading was collected and test compounds (10 μL per well) were transferred to the assay plates. Plates were incubated for 90 min at room temperature to allow compound-induced pigment redistribution to take place, and final absorbance reading was then collected. Test compounds were solubilized and serially diluted in DMSO, using 5-fold dilutions, to generate a 10-point dose–response curve with a top concentration of 10 μM (final assay concentration). Samples were then further diluted in assay buffer to achieve a 5× stock prior to addition to the assay plates. A SpectraMax absorbance plate reader (Molecular Devices, Inc.) was used for data collection.
as §4

[12] = test system: primary human pulmonary arterial smooth muscle cells; assay: HTRF cAMP assay in primary human pulmonary arterial smooth muscle cells; assay type: cell-based
Method: Additional In Vitro Assays […]
Compounds were also evaluated in HTRF cAMP assays using primary human pulmonary arterial smooth muscle cells (Cell Applications, Inc., #352Kq05a, or ThermoFisher/Gibco, #C0095C) using the same basic assay protocol outlined in the Experimental section. Cells were cultured as recommended by the suppliers, used at low passage and seeded into 384qwell assay plates at a density of 700q900 cell per well

[13] = target: T1, IP; assay: Recombinant human IP receptor cAMP assay after elimination of receptor reserve (transient CHO); assay type: cell-based; set-up: expressed in transfected cells; conditions: following elimination of receptor reserve
From the text: Additional In Vitro Assays
To determine the potency and efficacy of compounds in cAMP assays in the absence of receptor reserve effects, the cDNA sequence of the human IP receptor was subqcloned into an expression plasmid containing a ubiquitin promoter in place of the more commonly used CMV promoter. The ubiquitin […]
level of receptor expression after transfection into a suitable cell line. This plasmid was transiently transfected into CHO cells using lipofectamine, following standard protocols. The quantity of transfected plasmid DNA was titrated down from 16 µg to 1 ng per transfection using empty vector as carrier DNA.

[14] = HTRF (cAMP) human IP receptor assay; mean of at least three determinations
[15] = HTRF (cAMP) human DP1 receptor assay, mean of at least three determinations, read-out: EC50 hDP1
[16] = cAMP HTRF agonist assay (Gs), Table Sup2
[17] = cAMP HTRF agonist assay (Gs), Table Sup2, read-out: DP1 EC50

| AUC(0-inf) [1] | bioavailability [1] | Cmax [1] | Tmax [1] | T1/2 [1] | Clobs [1] | half-life [2] | Emax ([3]; CHO-K1; read-out: hIP % IA) | EC50 [3, 14] | half-life [4] | IC50 [5] | EC50 [6] | Emax [6] | Emax [7] | EC50 [7, 15] | EC50 [8] | EP2 % I.A [8] | EC50 [7, 17] | SMILES | EC50 [9] | DP1 % I.A [7, 16] | also measured |
| --- | --- | --- | --- | --- | --- | --- | --- | --- | --- | --- | --- | --- | --- | --- | --- | --- | --- | --- | --- | --- | --- |
| 2600 ng·h/mL | 88% | 3000 ng/mL | 0.5 h | 5 h | 0.8 L h^–1 kg^–1 | > 1 h | 85% | 3.4 nM | > 1 h | 23 nM | 400 nM | 92% | 38% | 2050 nM | – | – | – | O=C(O)COC[C@H]1CC[C@H](COC(=O)N(c2ccccc2)c2ccc(Cl)c(F)c2)CC1 [5m, 2-(((1r,4r)-4-(((4-Chloro-3-fluorophenyl)(phenyl)carbamoyloxy)methyl)cyclohexyl)methoxy)acetic Acid] | – | – | – |
| 4500 ng·h/mL | 24% | 1430 ng/mL | 0.833 h | 3.2 h | 0.6 L h^–1 kg^–1 | > 1 h | 88% | 10 nM | > 1 h | 19 nM | 640 nM | 95% | 45% | 5000 nM | – | – | – | O=C(O)COC[C@H]1CC[C@H](COC(=O)N(c2ccccc2)c2ccc(F)c(F)c2)CC1 [5o, 2-(((1r,4r)-4-(((3,4-Difluorophenyl)(phenyl)carbamoyloxy)methyl)cyclohexyl)methoxy)acetic Acid] | – | – | – |
| – | – | – | – | – | – | – | – | – | – | – | – | – | – | – | 790 nM | 73% | 0.8 nM | O=C(O)CCCCCCC1C(=O)NC(=O)N1CCC(O)C1CCCCC1 (centres unmarked) [BW245C] | > 10000 nM | 98% | – |
| – | – | – | – | – | – | – | – | – | – | – | – | – | – | – | > 10000 nM | – | 1.3 nM | CCCCC[C@H](O)/C=C/[C@H]1C(=O)C[C@H](O)[C@@H]1C/C=C\CCCC(=O)O [PGD2] | – | – | EC50 [10]: > 10000 nM |
| – | – | – | – | – | – | – | – | – | – | – | – | – | – | – | – | 84% | 520 nM | CCCCC[C@H](O)/C=C/[C@H]1[C@H](O)CC(=O)[C@@H]1C/C=C\CCCC(=O)O [PGE2] | – | – | EC50 [10]: 51 nM; EP1 % I.A [10]: 92%; EP3v6 % I.A [11]: 100% |

| SMILES | AUC(0-inf) [1] | bioavailability [1] | Cmax [1] | Tmax [1] | T1/2 [1] | Clobs [1] | half-life [2] | Emax ([3]; CHO-K1; read-out: hIP % IA) | EC50 [3, 14] | half-life [4] | IC50 [5] | EC50 [6] | Emax [6] | Emax [7] | EC50 [7, 15] | EC50 [8] | EP2 % I.A [8] | EC50 [7, 17] | EC50 [9] | DP1 % I.A [7, 16] | also measured |
| --- | --- | --- | --- | --- | --- | --- | --- | --- | --- | --- | --- | --- | --- | --- | --- | --- | --- | --- | --- | --- | --- |
| CC(C)N(CCCCOCC(=O)O)c1cnc(-c2ccccc2)c(-c2ccccc2)n1 [compound 2, MRE269] | – | – | – | – | – | – | – | – | 22 nM | – | 288 nM | – | – | 80% | 154 nM | > 10000 nM | – | – | > 10000 nM | 80% | Efficacy (% vs. Iloprost) [95% CI], primary human PASMC cAMP [12]: 41 [33, 49] %; EC50 ([12]; Homo sapiens, PASMC, n = 8, read-out: EC50 [95% CI], primary human PASMC cAMP): 184 nM; Efficacy (% vs. Iloprost) [95% CI], recombinant IP receptor cAMP [13]: 48 [43, 53] %; EC50 ([13]; n = 9, read-out: EC50 [95% CI], recombinant IP receptor cAMP): 151 nM; EC50 [11]: > 10000 nM; Emax ([3]; CHO-K1, read-out: hIP % IA): 60% |
